Among the data in paper PMC6632198, “In planta high levels of hydrolysable tannins inhibit peroxidase mediated anthocyanin degradation and maintain abaxially red leaves of Excoecaria Cochinchinensis” (BMC Plant Biology, 2019) are IC50 values, retold here.

The assay concerns the target T1, ADE/POD (anthocyanin degradation enzyme/peroxidase), purified Osmanthus POD.
T1 construct: major in-gel activity band about 110 kDa on semi-native PAGE
Kind of assay: guaiacol oxidation, absorbance at […] nm. It is filed as biochemical, Osmanthus fragrans. Particulars: guaiacol and H2O2 as substrates, 50 mM phosphate buffer pH 7.0; partially purified enzyme.

In turn, `O=C(O)c1cc(O)c(O)c(O)c1` [gallic acid] had an IC50 of 35.55 μM GAE.
